Results published in patent US20260053861A1, “CELL COMPOSITIONS AND METHODS OF USING THE SAME” (THE REGENTS OF THE UNIVERSITY OF CALIFORNIA, priority 2022, published 2026).
Structures can show the parent of a compound that is named as a salt.

Tested on: hPSC-SCs
Conditions: not given

| Structure (SMILES) | z.score.t |
| --- | --- |
| C[C@@H]1CC[C@@]2(NC1)O[C@H]1C[C@H]3[C@@H]4CC=C5C[C@@H](O)CC[C@]5(C)[C@H]4CC[C@]3(C)[C@H]1[C@@H]2C [Solasodine] | 0.9178 |
| C1CCN2C[C@@H]3C[C@@H](CN4CCCC[C@@H]34)[C@H]2C1 [Sparteine (−)] | 0.1131 |
| C[C@]12CC[C@H]3[C@@H](CC[C@]4(O)C[C@@H](O)CC[C@]34C=O)[C@@]1(O)CC[C@@H]2C1=CC(=O)OC1 [Strophanthidin] | −2.4 |
| C[C@@H]1O[C@@H](O[C@H]2C[C@@H](O)[C@]3(CO)[C@H]4[C@H](O)C[C@]5(C)[C@@H](C6=CC(=O)OC6)CC[C@]5(O)[C@@H]4CC[C@]3(O)C2)[C@H](O)[C@H](O)[C@H]1O.O.O.O.O.O.O.O.O [Strophantine octahydrate] | −2.04 |
| Cl.O=c1[nH]oc2c1CCNC2 [THIP Hydrochloride] | 0.9162 |
| CCC(=O)O[C@H]1CC[C@H]2[C@@H]3CCC4=CC(=O)CC[C@]4(C)[C@H]3CC[C@]12C [Testosterone propionate] | −1.014 |
| CCCCNc1ccc(C(=O)OCCN(C)C)cc1.Cl [TetracaÂ<ne hydrochloride] | −0.2276 |
| Cn1c(=O)c2[nH]cnc2n(C)c1=O.O [Theophylline monohydrate] | −1.123 |
| COc1c(O[C@@H]2O[C@H](CO)[C@@H](O)[C@H](O)[C@H]2O)cc2c(c1OC)-c1ccc(SC)c(=O)cc1[C@@H](NC(C)=O)CC2 [Thiocolchicoside] | 1.11 |
| C=C(NC(=O)C(=C)NC(=O)c1csc(C2=N[C@@H]3c4csc(n4)[C@H]4NC(=O)c5csc(n5)[C@H]([C@](C)(O)[C@@H](C)O)NC(=O)[C@H]5CSC(=N5)/C(=C/C)NC(=O)[C@H]([C@@H](C)O)NC(=O)c5csc(n5)[C@]3(CC2)NC(=O)[C@H](C)NC(=O)C(=C)NC(=O)[C@H](C)NC(=O)[C@H]([C@@H](C)CC)N[C@@H]2C=Cc3c([C@H](C)O)cc(nc3[C@H]2O)C(=O)O[C@@H]4C)n1)C(N)=O [Thiostrepton] | 0.6013 |
| N[C@@H](Cc1cc(I)c(Oc2cc(I)c(O)c(I)c2)c(I)c1)C(=O)O [Thyroxine (L)] | −0.8478 |

Same assay, conditions: HTS viability of hPSC-SCs in the presence of 30 mM glucose; Prestwick library; Table S4

| Structure (SMILES) | z.score.t |
| --- | --- |
| CN[C@@H]1[C@@H](O)[C@@H](O[C@@H]2[C@@H](O)[C@H](O[C@H]3OC(CN)=CC[C@H]3N)[C@@H](N)C[C@H]2N)OC[C@]1(C)O [Sisomicin sulfate] | −0.3319 |
| COc1ccc2c(OC)c3ccoc3nc2c1OC [Skimmianine] | −0.7376 |
| CC(C)NCC(O)c1ccc(NS(C)(=O)=O)cc1 (centres unmarked) [Sotalol hydrochloride] | −1.056 |
| CC(=O)N[C@@H](CC(=O)N[C@@H](CCC(=O)O)C(=O)O)C(=O)O [Spaglumic acid] | 2.046 |
| CN[C@@H]1[C@H](O)[C@H](NC)[C@H]2O[C@@]3(O)C(=O)C[C@@H](C)O[C@H]3O[C@@H]2[C@H]1O [Spectinomycin dihydrochloride] | 1.101 |
| O=C(CCCN1CCC2(CC1)C(=O)NCN2c1ccccc1)c1ccc(F)cc1 [Spiperone] | 0.09999 |
| CC(=O)S[C@@H]1CC2=CC(=O)CC[C@]2(C)[C@H]2CC[C@@]3(C)[C@@H](CC[C@@]34CCC(=O)O4)[C@H]12 [Spironolactone] | 0.05523 |
| C[N+]1(C)CCC[C@H]1C(=O)[O-].Cl [Stachydrine hydrochloride] | −0.8304 |
| [H]/N=C(/N)N[C@H]1[C@H](O)[C@@H](O)[C@H](O[C@@H]2O[C@@H](C)[C@](O)(C=O)[C@H]2O[C@@H]2O[C@@H](CO)[C@H](O)[C@@H](O)[C@@H]2NC)[C@@H](N/C(N)=N\[H])[C@@H]1O [Streptomycin sulfate] | −1.359 |
| O=C(O)CCC(=O)Nc1ccc(S(=O)(=O)Nc2nccs2)cc1 [Succinylsulfathiazole] | −0.6792 |
| Clc1ccc(CSC(Cn2ccnc2)c2ccc(Cl)cc2Cl)cc1 (centres unmarked) [Sulconazole nitrate] | −0.2136 |
| Nc1ccc(S(=O)(=O)NC(=O)c2ccccc2)cc1 [Sulfabenzamide] | −0.9042 |
| CC(=O)[N-]S(=O)(=O)c1ccc(N)cc1.O.[Na+] [Sulfacetamide sodic hydrate] | −0.2865 |
| Nc1ccc(S(=O)(=O)Nc2ccc(Cl)nn2)cc1 [Sulfachloropyridazine] | −0.1014 |
| Nc1ccc(S(=O)(=O)Nc2ncccn2)cc1 [Sulfadiazine] | 0.5856 |
| COc1cc(NS(=O)(=O)c2ccc(N)cc2)nc(OC)n1 [Sulfadimethoxine] | 0.1469 |
| COc1ncnc(NS(=O)(=O)c2ccc(N)cc2)c1OC [Sulfadoxine] | 0.8015 |
| [H]/N=C(/N)NS(=O)(=O)c1ccc(N)cc1 [Sulfaguanidine] | −0.2425 |
| Cc1ccnc(NS(=O)(=O)c2ccc(N)cc2)n1 [Sulfamerazine] | 0.3022 |
| COc1cnc(NS(=O)(=O)c2ccc(N)cc2)nc1 [Sulfameter] | 1.493 |
| Cc1cc(C)nc(NS(=O)(=O)c2ccc(N)cc2)n1 [Sulfamethazine sodium salt] | 0.3022 |

| Structure (SMILES) | z.score.t |
| --- | --- |
| Cc1nnc(NS(=O)(=O)c2ccc(N)cc2)s1 [Sulfamethizole] | 1.132 |
| Cc1cc(NS(=O)(=O)c2ccc(N)cc2)no1 [Sulfamethoxazole] | 0.02534 |
| COc1ccc(NS(=O)(=O)c2ccc(N)cc2)nn1 [Sulfamethoxypyridazine] | 0.2139 |
| COc1cc(NS(=O)(=O)c2ccc(N)cc2)ncn1 [Sulfamonomethoxine] | 0.453 |
| Nc1ccc(S(N)(=O)=O)cc1 [Sulfanilamide] | −0.4325 |
| Nc1ccc(S(=O)(=O)Nc2ccnn2-c2ccccc2)cc1 [Sulfaphenazole] | 0.4626 |
| Nc1ccc(S(=O)(=O)Nc2ccccn2)cc1 [Sulfapyridine] | 1.853 |
| Nc1ccc(S(=O)(=O)Nc2cnc3ccccc3n2)cc1 [Sulfaquinoxaline sodium salt] | 1.117 |
| O=C(O)c1cc(/N=N/c2ccc(S(=O)(=O)Nc3ccccn3)cc2)ccc1O [Sulfasalazine] | 0.1344 |
| Nc1ccc(S(=O)(=O)Nc2nccs2)cc1 [Sulfathiazole] | 0.9109 |
| O=C1C(CC[S+]([O-])c2ccccc2)C(=O)N(c2ccccc2)N1c1ccccc1 (centres unmarked) [Sulfinpyrazone] | 0.3922 |
| Cc1noc(NS(=O)(=O)c2ccc(N)cc2)c1C [Sulfisoxazole] | 0.1556 |
| CC1=C(CC(=O)O)c2cc(F)ccc2/C1=C\c1ccc([S+](C)[O-])cc1 (centres unmarked) [Sulindac] | −0.2425 |
| COc1cc([S+](C)[O-])ccc1-c1nc2ncccc2[nH]1 (centres unmarked) [Sulmazole] | 0.6376 |
| CCCCCCCCNC(C)C(O)c1ccc(SC(C)C)cc1 (centres unmarked) [Suloctidil] | −0.649 |
| CCN1CCCC1CNC(=O)c1cc(S(N)(=O)=O)ccc1OC (centres unmarked) [Sulpiride] | 0.1594 |
| CC(C(=O)O)c1ccc(C(=O)c2cccs2)cc1 (centres unmarked) [Suprofen] | 0.2361 |
| CCCCC1(COC(=O)CCC(=O)O)C(=O)N(c2ccccc2)N(c2ccccc2)C1=O [Suxibuzone] | 0.9352 |
| CCOC(=O)Oc1c(OC)cc(C(=O)O[C@@H]2C[C@@H]3CN4CCc5c([nH]c6cc(OC)ccc56)[C@H]4C[C@@H]3[C@H](C(=O)OC)[C@H]2OC)cc1OC [Syrosingopine] | −0.4543 |
| Nc1c2c(nc3ccccc13)CCCC2 [Tacrine hydrochloride hydrate] | −0.7049 |
| CC1(C)S[C@@H]2[C@H](NC(=O)[C@H](N)c3ccccc3)C(=O)N2[C@H]1C(=O)OC1OC(=O)c2ccccc21 (some centres unmarked) [Talampicillin hydrochloride] | −0.8111 |

| Structure (SMILES) | z.score.t |
| --- | --- |
| CC/C(=C(\c1ccccc1)c1ccc(OCCN(C)C)cc1)c1ccccc1 [Tamoxifen citrate] | −1.827 |
| Cc1scc2c1N(C(=O)CN1CCN(C)CC1)c1ccccc1NC2=O [Telenzepine dihydrochloride] | 0.5452 |
| CN1C(C(=O)Nc2ccccn2)=C(O)c2sccc2S1(=O)=O [Tenoxicam] | 1.659 |
| COc1cc2nc(N3CCN(C(=O)C4CCCO4)CC3)nc(N)c2cc1OC (centres unmarked) [Terazosin hydrochloride] | 0.2582 |
| CC(C)N1CCN(c2ccc(OCC3COC(Cn4cncn4)(c4ccc(Cl)cc4Cl)O3)cc2)CC1 (centres unmarked) [Terconazole] | −0.07901 |
| CC(C)(C)c1ccc(C(O)CCCN2CCC(C(O)(c3ccccc3)c3ccccc3)CC2)cc1 (centres unmarked) [Terfenadine] | −0.8513 |
| CN(C)[C@@H]1C(O)=C(C(N)=O)C(=O)[C@@]2(O)C(O)=C3C(=O)c4c(O)cccc4[C@@](C)(O)[C@H]3C[C@@H]12 [Tetracycline hydrochloride] | −0.2425 |
| O.O=C1C(O)=C(O)C(=O)C(O)=C1O [Tetrahydroxy-1,4-quinone monohydrate] | 1.323 |
| c1ccc2c(c1)CCCC2C1=NCCN1 (centres unmarked) [Tetrahydrozoline hydrochloride] | 0.81 |
| c1ccc(C2CN3CCSC3=N2)cc1 (centres unmarked) [Tetramisole hydrochloride] | −0.3319 |
| COc1ccc2cc1Oc1ccc(cc1)C[C@H]1c3cc(c(OC)cc3CCN1C)Oc1c(OC)c(OC)cc3c1[C@H](C2)N(C)CC3 [Tetrandrine] | −0.4538 |
| O=C1CCC(N2C(=O)c3ccccc3C2=O)C(=O)N1 (centres unmarked) [Thalidomide] | −1.821 |
| Cn1cnc2c1c(=O)[nH]c(=O)n2C [Theobromine] | −1.169 |
| Cc1ncc(C[n+]2csc(CCO)c2C)c(N)n1 [Thiamine hydrochloride] | −0.865 |
| CS(=O)(=O)c1ccc([C@@H](O)[C@@H](CO)NC(=O)C(Cl)Cl)cc1 [Thiamphenicol] | 1.099 |
| S=C(NC1CCCCC1)N1CCC(c2cnc[nH]2)CC1 [Thioperamide maleate] | 0.8825 |
| CSc1ccc2c(c1)N(CCC1CCCCN1C)c1ccccc1S2 (centres unmarked) [Thioridazine hydrochloride] | −1.898 |
| O=C(O)CNC(=O)C(CS)Cc1ccccc1 (centres unmarked) [Thiorphan] | 0.563 |
| CCCCCCCCCCCCCCCC[N+](C)(C)CCN(Cc1ccc(OC)cc1)c1ncccn1 [Thonzonium bromide] | −1.884 |
| c1ccc2[nH]c(-c3cscn3)nc2c1 [Tiabendazole] | 1.638 |
| CCN(CC)CCNC(=O)c1cc(S(C)(=O)=O)ccc1OC [Tiapride hydrochloride] | 0.5452 |
